Test results reported in patent US20250353860A1, “PIPERIDINE CARBOXAMIDE AZAINDANE DERIVATIVE, METHOD FOR PREPARING SAME, AND USE THEREOF” (BRISE PHARMACEUTICALS CO., LTD., priority 2022, published 2025).

Tests used:
CGRP receptor [1] = molecular target: T1, CGRP receptor (Homo sapiens, UniProt O60894+Q16602); test: Inhibition of CGRP signaling pathway (cAMP, HTRF) in SK-N-MC cells; type: cell-based; parameters: SK-N-MC (ATCC, HTB-10) cells endogenously expressing CGRP receptor; host or cells: SK-N-MC; settings: [α-CGRP]=10 ng/mL; increase in cAMP levels; read-out: IC50 of the inhibitory effect on the CGRP signaling pathway in SK-N-MC cells
Experimental: (§1) The inhibitory effect of the CGRP signaling pathway in vitro is evaluated by measuring the cAMP level. The principle is that after CGRP binds to the CGRP receptor, the CGRP signaling pathway is activated, inducing an increase in the cAMP level. […] The specific experimental method is as follows:
cAMP was determined using the CAMP-GS DYNAMIC KIT detection kit (Cisbio, 62AM4PEB).
SK-N-MC (ATCC, HTB-10) cells endogenously expressing CGRP receptor were cultured in EMEM+10% FBS medium and the cells were collected during the logarithmic growth phase. According to the instructions of the kit, the cells were resuspended in Stimulation Buffer comprising 0.5 mM IBMX, and 5 μL of the cell suspension was added to each well of a 96-well microplate (Cisbio, 66PL96025) at a cell density of 15,000 cells/well, 2.5 μL of gradient diluted compound solution was added to each well. After incubation at 37° C. for 30 minutes, 2.5 μL of 40 ng/ml human α-CGRP (Bachem, H-1470.0500) diluted in Stimulation Buffer comprising 0.5 mM IBMX was added to each well to a final concentration of 10 ng/ml. After incubation at 37° C. for 30 minutes, 5 μL of Anti-cAMP-Cryptate solution and 5 μL of cAMP-d2 solution were added to each well. After incubation at room temperature for 60 minutes, the HTRF signal was read using a microplate reader (Molecular Devices). Graphpad Prism was used to calculate the IC50 value of the compound's inhibitory effect on the increase in cAMP levels based on the compound concentration and HTRF signal.

CGRP receptor [2] = molecular target: T1, CGRP receptor; test: Affinity for human CGRP receptor ([125I]h-CGRPα competition, CHO cell membranes); type: binding; parameters: host or cells: CHO-K1; settings: 0.03 nM [125I]h-CGRPα; Cheng Prusoff; read-out: Ki of the affinity determination to human CGRP receptor
Experimental: The cell membrane homogenate of CHO cells expressing human CGRP receptor (comprising 16 μg of protein) was incubated with 0.03 nM [^125I]h-CGRPα and gradiently diluted test samples in buffer (50 mM Hepes-NaOH (pH 7.4), 10 mM MgCl2, 4 mM KCl, 10 mM […], 1 mM EDTA, 1 μM phosphorylation amide, 0.3% BSA and 0.04% bacitracin) at 22° C. for 90 minutes. A control group without the test sample was set up to obtain the highest binding signal of the experiment, and the non-specific binding of the experiment was determined by adding 1 μM non-isotope-labeled h-CGRPα to the control group. After the incubation, a glass fiber filter (GF/B, Packard) soaked with 0.3% PEI was placed in a 96-well cell collector (Unfilter, Packard), and the sample was quickly filtered under vacuum and rinsed several times with precooled buffer comprising 50 mM Tris-HCl and 150 mM NaCl. After the filter was dried, scintillation fluid (Microscint 0, Packard) was added and the radioactive signal value was measured using a scintillation counter (Topcount, Packard). The results are expressed as the percentage of inhibition of specific binding of the radioligand. Non-isotope labeled h-CGRPα was used as a standard sample as a control. The test samples and standard samples were tested at multiple concentrations to obtain a competition curve with [^125I]h-CGRPα, thereby calculating the IC50) 20 of each sample. The inhibition constant Ki was further calculated using the Cheng Prusoff equation: Ki=IC50/(1+L/KD), wherein L represents the concentration of [^125I]h-CGRPα in the system (0.03 nM), and KD represents the dissociation constant between [^125I]h-CGRPα and the human CORP receptor in the system (0.06 nM).

[3] = Pharmacokinetics in Cynomolgus monkeys by oral gavage; type: in vivo; settings: for AUC / half-life / Cmax: male, cynomolgus monkey, plasma, PO 2 mg/kg; for half-life: read-out: Half-life T½ (converted); for Cmax: read-out: Plasma concentration Cmax; for Pharmacokinetic properties compared with Atogepant: conclusion in words
Experimental: The compounds of the present application were administered by gavage to cynomolgus monkeys as test animals, and the drug concentrations in plasma at different times were determined by LC/MS/MS to study the pharmacokinetic characteristics of the compounds of the present application […].
• Positive control compound Atogepant, Example 1A and Example 3A of the present application; • Six healthy adult male Cynomolgus monkeys, Kangshun Biotechnology Co., Ltd.
An appropriate amount of the compound to be tested was weighed, added with 100% polyethylene glycol 400, and vortexed to dissolve the compound. After the preparation was completed, it would be a colorless and transparent solution with a concentration of 1 mg/mL.
Six healthy adult male cynomolgus monkeys were fasted overnight and fed 4 hours after drug administration.
About 0.2 mL of blood was collected from the jugular vein before administration and 0.25 hours, 0.5 hours, 1 hour, 2 hours, 4 hours, 6 hours, 8 hours, 10 hours and 24 hours after administration, and anticoagulated with EDTA-K2. After blood samples were collected, they were placed in labeled ice-water bath centrifuge tubes and rapidly centrifuged to separate plasma. The centrifugation conditions were: 4000 rpm, 10 minutes, 4° C. The collected plasma was stored at below −40° C. for testing. The content of the test compound in the plasma of Cynomolgus monkeys after gavage of different compounds was determined by LC-MS/MS.

CGRP receptor [4] = molecular target: T1, CGRP receptor; test: Inhibition of CGRP signaling pathway (cAMP, HTRF) in CHO-K1 cells expressing human CGRP receptors; type: cell-based; parameters: host or cells: CHO-K1; settings: [α-CGRP]=10 ng/ml; increase in cAMP levels; read-out: IC50 of the inhibitory effect on the CGRP signaling pathway in CHO-K1 cells expressing human CGRP receptors
Experimental: as §1
CHO-K1 cells expressing human CGRP receptor (CGRPR/CHO-K1, PerkinElmer, ES-420-C) were cultured in F12K+10% FBS+400 μg/mL G418+10 μg/mL Blasticidin medium, and the cells were collected in the logarithmic growth phase. According to the instructions of the kit, the cells were resuspended in Stimulation Buffer comprising 0.5 mM IBMX, and 5 μL of the cell suspension was added to each well of a 96-well microplate (Cisbio, 66PL96025) at a cell density of 15,000 cells/well. 2.5 μL of gradient diluted compound solution was added to each well. After incubation at 37° C. for 30 minutes, 2.5 μL of 40 ng/ml human α-CGRP (Bachem, H-1470,0500) diluted in Stimulation Buffer comprising 0.5 mM IBMX was added to each well to a final concentration of 10 ng/ml. After incubation at 37° C. for 30 minutes, 5 μL of Anti-cAMP-Cryptate solution and 5 μL of cAMP-d2 solution were added to each well. After incubation at room temperature for 60 minutes, the HTRF signal was read using a microplate reader (Molecular Devices). Graphpad Prism was used to calculate the IC50 value of the compound's inhibitory effect on the increase in cAMP levels based on the compound concentration and HTRF signal.

IC50 (CGRP receptor [1]) [nM] | Ki (CGRP receptor [2]) [nM] | AUC [3] [µg·h/mL] | half-life [3] [h] | Cmax [3] [µg/mL] | IC50 (CGRP receptor [4]) [nM] | Pharmacokinetic properties compared with Atogepant [3] | Structure (SMILES)
0.12 | 0.0098 | 0.396 ± 0.042 | 1.5 ± 0.1 | 0.108 ± 0.018 | 1.5 |  | C[C@@H]1[C@H](c2c(F)ccc(F)c2F)C[C@H](NC(=O)c2cnc3c(c2)C[C@@]2(C3)C(=O)Nc3ncccc32)C(=O)N1CC(F)(F)F [Atogepant, reference compound]
0.18 | 0.017 | 1.84 ± 1.19 | 3.77 ± 0.2 | 0.294 ± 0.166 | 14.5 | good pharmacokinetic properties | C[C@@H]1[C@H](c2c(F)ccc(F)c2F)C[C@H](NC(=O)c2cc3c(o2)CC[C@]2(C3)C(=O)Nc3ncccc32)C(=O)N1CC(F)(F)F [Example 1A, (R)—N-((3S,5S,6R)-6-methyl-2-oxo-1-(2,2,2-trifluoroethyl)-5-(2,3,6-trifluorophenyl)piperidin-3-yl)-2′-oxo-1′,2′,6,7-tetrahydro-4H-spiro[benzofuran-5,3′-pyrrolo[2,3-b]pyridine]-2-carboxamide]
0.68 | 0.019 | 3.59 ± 0.742 | 2.96 ± 0.3 | 0.778 ± 0.144 | 2.9 | good pharmacokinetic properties | C[C@@H]1[C@H](c2c(F)ccc(F)c2F)C[C@H](NC(=O)c2cc3c(s2)C[C@]2(C3)C(=O)Nc3ncccc32)C(=O)N1CC(F)(F)F [Example 3A, (S)—N-((3S,5S,6R)-6-methyl-2-oxo-1-(2,2,2-trifluoroethyl)-5-(2,3,6-trifluorophenyl)piperidin-3-yl)-2′-oxo-1′,2′,4,6-tetrahydrospiro[cyclopenta[b]thiophene-5,3′-pyrrolo[2,3-b]pyridine]-2-carboxamide]
